pIC50: −log10 of the molar value. Active and inactive are the calls of the source. The rule behind the calls is not given here.
Legend:
HEK293 = assay: Cytotoxicity against HEK293 after 24 hrs by CellTiter-Glo luminescent cell viability assay; type: cell-based; settings: Homo sapiens, HEK293, 24 h
[1] = target: T1, Mitogen-activated protein kinase 8 (Homo sapiens, UniProt P45983); assay: Inhibition of JNK1 (unknown origin)
[2] = target: T1, Mitogen-activated protein kinase 8; assay: Inhibition of JNK1 (unknown origin) expressed in HEK293 cells assessed as anisomycin-induced IRS-1(Ser307) phosphorylation at 10 uM incubated for 30 mins by Western blot analysis relative to anisomycin; type: cell-based; design: scale not given: the % may be the effect or the level left
[3] = target: T1, Mitogen-activated protein kinase 8; assay: Inhibition of JNK1 (unknown origin) expressed in HEK293 cells assessed as anisomycin-induced c-Jun phosphorylation at 10 uM incubated for 30 mins by Western blot analysis relative to anisomycin; type: cell-based; design: scale not given: the % may be the effect or the level left
[4] = target: T1, Mitogen-activated protein kinase 8; assay: Inhibition of JNK1 (unknown origin) expressed in HEK293 cells assessed as anisomycin-induced JNK phosphorylation at 10 uM incubated for 30 mins by Western blot analysis relative to anisomycin; type: cell-based; design: scale not given: the % may be the effect or the level left
[5] = target: Mitogen-activated protein kinase 8 (Rattus norvegicus) (UniProt P49185); assay: Inhibition of albumin-conjugated palmitate-induced JNK1/2 phosphorylation assessed as JNK phosphorylation level in rat RINm5F cells incubated for 8 hrs; type: cell-based
[6] = target: Mitogen-activated protein kinase 8 (Rattus norvegicus) (UniProt P49185); assay: Inhibition of JNK1 phosphorylation in rat RINm5F cells assessed as suppression of albumin-conjugated palmitate-induced IRS-1 Ser307 phosphorylation incubated for 8 hrs; type: cell-based; design: concentration or dose not given beside the values; settings: concentration not given here

T1 sequence (P45983 whole entry): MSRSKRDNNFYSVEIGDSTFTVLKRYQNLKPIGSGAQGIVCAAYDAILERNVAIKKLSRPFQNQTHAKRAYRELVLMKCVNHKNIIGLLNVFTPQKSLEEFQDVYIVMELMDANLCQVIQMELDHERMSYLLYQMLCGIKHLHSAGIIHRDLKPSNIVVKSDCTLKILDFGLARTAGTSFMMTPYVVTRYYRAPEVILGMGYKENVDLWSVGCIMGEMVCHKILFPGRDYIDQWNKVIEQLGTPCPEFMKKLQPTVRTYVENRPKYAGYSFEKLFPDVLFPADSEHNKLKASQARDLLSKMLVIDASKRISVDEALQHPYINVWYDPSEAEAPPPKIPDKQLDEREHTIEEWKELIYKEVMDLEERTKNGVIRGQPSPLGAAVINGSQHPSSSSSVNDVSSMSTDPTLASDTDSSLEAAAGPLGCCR
Mitogen-activated protein kinase 8 (Rattus norvegicus), sequence (P49185 whole entry): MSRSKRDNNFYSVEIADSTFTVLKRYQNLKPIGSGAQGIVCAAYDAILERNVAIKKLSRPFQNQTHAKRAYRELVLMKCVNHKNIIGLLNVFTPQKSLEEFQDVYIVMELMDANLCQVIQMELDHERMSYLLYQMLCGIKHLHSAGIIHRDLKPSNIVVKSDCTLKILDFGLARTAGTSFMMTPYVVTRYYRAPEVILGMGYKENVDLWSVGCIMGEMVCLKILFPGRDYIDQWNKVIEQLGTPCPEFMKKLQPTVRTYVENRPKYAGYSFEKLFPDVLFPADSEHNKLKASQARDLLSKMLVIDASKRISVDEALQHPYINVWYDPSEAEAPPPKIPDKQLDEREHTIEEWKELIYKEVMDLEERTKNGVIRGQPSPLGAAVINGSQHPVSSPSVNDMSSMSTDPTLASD

## Cn1c(=O)c(Oc2ccc(F)cc2F)cc2cnc(Nc3ccc(N4CCCC4)cc3)nc21
HEK293
  pIC50: < 4.52
[1]
  pIC50: < 4.64
[2]
  Activity: 98.9%
[3]
  Activity: 108%
[4]
  Activity: 98.9%

## Cn1c(=O)c(Oc2c(Cl)cccc2Cl)cc2cnc(NCc3ccccn3)nc21
HEK293
  pIC50: < 4.52
[1]
  pIC50: < 4.64
[2]
  Activity: 2.15%
[3]
  Activity: 115%
[4]
  Activity: 35.3%

## CC(C)Nc1ncc2cc(Oc3ccc(F)cc3F)c(=O)n(C)c2n1
HEK293
  pIC50: < 4.52
[1]
  pIC50: 5.37
[2]
  Activity: 15%
[3]
  Activity: 81%

## Cn1c(=O)c(Oc2c(Cl)cccc2Cl)cc2cnc(N3CCC(O)CC3)nc21
HEK293
  pIC50: < 4.52
[1]
  pIC50: < 4.64
[2]
  Activity: 40.5%
[3]
  Activity: 99.1%
[4]
  Activity: 96.3%

## Cn1c(=O)c(Oc2c(Cl)cccc2Cl)cc2cnc(Nc3ccc(N4CCCCC4)cc3)nc21
HEK293
  pIC50: < 4.52
[1]
  pIC50: < 4.64
[2]
  Activity: 46.3%
[3]
  Activity: 108%
[4]
  Activity: 129%

## Cn1c(=O)c(Oc2c(Cl)cccc2Cl)cc2cnc(N3CCC(CO)CC3)nc21
HEK293
  pIC50: < 4.52
[1]
  pIC50: < 4.64
[2]
  Activity: 127%
[3]
  Activity: 149%
[4]
  Activity: 119%

## O=C(O)c1ccccc1Nc1ccnc(Nc2cccc(F)c2)n1
HEK293
  pIC50: < 4.52
[1]
  pIC50: 7.30
[2]
  Activity: 69%
[3]
  Activity: 46%

## Cn1c(=O)c(Oc2ccc(F)cc2F)cc2cnc(NC3CCCC3)nc21
HEK293
  pIC50: < 4.52
[1]
  pIC50: 5.23
[2]
  Activity: 0%
[3]
  Activity: 66.5%
[4]
  Activity: 40%
[5]
  inhibition: inactive
[6]
  inhibition: 61%

## Cn1c(=O)c(Oc2c(Cl)cccc2Cl)cc2cnc(N3CCC(O)C3)nc21 (stereo not given)
HEK293
  pIC50: < 4.52
[1]
  pIC50: < 4.64
[2]
  Activity: 74.5%
[3]
  Activity: 82.5%
[4]
  Activity: 74.5%

## Cn1c(=O)c(Oc2ccc(F)cc2F)cc2cnc(NC(CCO)CCO)nc21 [PAMAPIMOD]
HEK293
  pIC50: < 4.52
[2]
  Activity: 14%
[3]
  Activity: 94%

## Cn1c(=O)c(Oc2ccc(F)cc2F)cc2cnc(NCCN3CCOCC3)nc21
HEK293
  pIC50: < 4.52
[1]
  pIC50: < 4.64
[2]
  Activity: 26.7%
[3]
  Activity: 102%
[4]
  Activity: 96.1%

## Cn1c(=O)c(Oc2ccc(F)cc2F)cc2cnc(NC3CC3)nc21
HEK293
  pIC50: < 4.52
[1]
  pIC50: 5.14
[2]
  Activity: 2.61%
[3]
  Activity: 142%
[4]
  Activity: 174%

## NC(=O)c1ccccc1Nc1ccnc(Nc2cccc(O)c2)n1
HEK293
  pIC50: < 4.52
[1]
  pIC50: 6.77
[2]
  Activity: 97%
[3]
  Activity: 104%

## Cn1c(=O)c(Oc2c(Cl)cccc2Cl)cc2cnc(NC3CCCC3)nc21
HEK293
  pIC50: < 4.52
[1]
  pIC50: 4.71
[2]
  Activity: 8.18%
[3]
  Activity: 115%
[4]
  Activity: 108%

## Cn1c(=O)c(Oc2ccc(F)cc2F)cc2cnc(NC3CCCCC3)nc21
HEK293
  pIC50: 4.85
[1]
  pIC50: 4.79
[2]
  Activity: 0%
[3]
  Activity: 32.4%
[4]
  Activity: 37.6%
[5]; concentration not given here
  inhibition: 59%
[6]
  inhibition: 93%

## Cn1c(=O)c(Oc2c(Cl)cccc2Cl)cc2cnc(NCCN3CCOCC3)nc21
HEK293
  pIC50: < 4.52
[1]
  pIC50: 4.57
[2]
  Activity: 71.3%
[3]
  Activity: 114%
[4]
  Activity: 139%

## Cn1c(=O)c(Oc2c(Cl)cccc2Cl)cc2cnc(NCCc3ccccn3)nc21
HEK293
  pIC50: < 4.52
[1]
  pIC50: < 4.64
[2]
  Activity: 14.3%
[3]
  Activity: 116%
[4]
  Activity: 81.6%

## Cn1c(=O)c(Oc2ccc(F)cc2F)cc2cnc(N3CCC(O)CC3)nc21
HEK293
  pIC50: < 4.52
[1]
  pIC50: < 4.64
[2]
  Activity: 124%
[3]
  Activity: 131%
[4]
  Activity: 122%

## Cn1c(=O)c(Oc2c(Cl)cccc2Cl)cc2cnc(N3CCCCC3CO)nc21 (stereo not given)
HEK293
  pIC50: < 4.52
[1]
  pIC50: < 4.64
[2]
  Activity: 110%
[3]
  Activity: 118%
[4]
  Activity: 110%

## Cn1c(=O)c(Oc2ccc(F)cc2F)cc2cnc(NC3CCCCCC3)nc21
HEK293
  pIC50: < 4.57
[1]
  pIC50: 5.17
[2]
  Activity: 0%
[3]
  Activity: 119%
[4]
  Activity: 84%

## Cn1c(=O)c(Oc2c(Cl)cccc2Cl)cc2cnc(N3CCCC(O)C3)nc21 (stereo not given)
HEK293
  pIC50: < 4.52
[1]
  pIC50: < 4.64
[2]
  Activity: 93.6%
[3]
  Activity: 133%
[4]
  Activity: 36.2%

## Cn1c(=O)c(Oc2ccc(F)cc2F)cc2cnc(N3CCC(CO)CC3)nc21
HEK293
  pIC50: < 4.52
[1]
  pIC50: < 4.64
[2]
  Activity: 102%
[3]
  Activity: 121%
[4]
  Activity: 91.6%

## CCOC(=O)N1CCC(Nc2ncc3cc(Oc4ccc(F)cc4F)c(=O)n(C)c3n2)CC1
HEK293
  pIC50: < 4.52
[1]
  pIC50: 5.56
[2]
  Activity: 0%
[3]
  Activity: 42%

## Cn1c(=O)c(Oc2ccc(F)cc2F)cc2cnc(NCc3ccccn3)nc21
HEK293
  pIC50: < 4.52
[1]
  pIC50: < 4.64
[2]
  Activity: 68.2%
[3]
  Activity: 86.2%
[4]
  Activity: 68.2%

## Cn1c(=O)c(Oc2ccc(F)cc2F)cc2cnc(NCc3cccc(C(F)(F)F)c3)nc21
HEK293
  pIC50: < 4.52
[1]
  pIC50: < 4.64
[2]
  Activity: 0%
[3]
  Activity: 101%
[4]
  Activity: 94.1%

## O=C(O)c1ccccc1Nc1ccnc(Nc2cccc(O)c2)n1
HEK293
  pIC50: < 4.52
[2]
  Activity: 161%
[3]
  Activity: 88%

## Cn1c(=O)c(Oc2c(Cl)cccc2Cl)cc2cnc(NC3CC3)nc21
HEK293
  pIC50: < 4.52
[1]
  pIC50: 4.83
[2]
  Activity: 14.7%
[3]
  Activity: 128%
[4]
  Activity: 96.1%

## Cn1c(=O)c(Oc2ccc(F)cc2F)cc2cnc(N3CCC(O)C3)nc21 (stereo not given)
HEK293
  pIC50: < 4.52
[1]
  pIC50: < 4.64
[2]
  Activity: 51.1%
[3]
  Activity: 111%
[4]
  Activity: 131%

## Cn1c(=O)c(Oc2ccc(F)cc2F)cc2cnc(N3CCCC(CO)C3)nc21 (stereo not given)
HEK293
  pIC50: < 4.52
[1]
  pIC50: < 4.64
[2]
  Activity: 79.4%
[3]
  Activity: 103%
[4]
  Activity: 21.1%

## Cn1c(=O)c(Oc2c(Cl)cccc2Cl)cc2cnc(Nc3ccc(N4CCCC4)cc3)nc21
HEK293
  pIC50: < 4.52
[1]
  pIC50: < 4.64
[2]
  Activity: 165%
[3]
  Activity: 104%
[4]
  Activity: 136%

## Cn1c(=O)c(Oc2ccc(F)cc2F)cc2cnc(NCCCNS(C)(=O)=O)nc21
HEK293
  pIC50: < 4.52
[1]
  pIC50: 5.56
[2]
  Activity: 0%
[3]
  Activity: 73.5%
[4]
  Activity: 52.9%
[5]
  inhibition: inactive
[6]
  inhibition: 87%

## Cn1c(=O)c(Oc2c(Cl)cccc2Cl)cc2cnc(Nc3ccc(N4CCC(O)CC4)cc3)nc21
HEK293
  pIC50: < 4.52
[1]
  pIC50: < 4.64
[2]
  Activity: 9.09%
[3]
  Activity: 74%
[4]
  Activity: 58.9%
[5]; concentration not given here
  inhibition: 54%
[6]
  inhibition: 58%

## Cn1c(=O)c(Oc2ccc(F)cc2F)cc2cnc(N3CCCC(O)C3)nc21 (stereo not given)
HEK293
  pIC50: < 4.52
[1]
  pIC50: < 4.64
[2]
  Activity: 88.7%
[3]
  Activity: 104%
[4]
  Activity: 38.1%

## Cn1c(=O)c(Oc2c(Cl)cccc2Cl)cc2cnc(N3CCCC(CO)C3)nc21 (stereo not given)
HEK293
  pIC50: < 4.52
[1]
  pIC50: < 4.64
[2]
  Activity: 99.3%
[3]
  Activity: 103%
[4]
  Activity: 99.3%

## Cn1c(=O)c(Oc2ccc(F)cc2F)cc2cnc(NCCNS(C)(=O)=O)nc21
HEK293
  pIC50: < 4.52
[1]
  pIC50: 4.72
[2]
  Activity: 12.2%
[3]
  Activity: 67.5%
[4]
  Activity: 75.8%

## Cn1c(=O)c(Oc2ccc(F)cc2F)cc2cnc(NC3CCNCC3)nc21
HEK293
  pIC50: < 4.52
[1]
  pIC50: 4.96
[2]
  Activity: 0%
[3]
  Activity: 119%
[4]
  Activity: 81%

Source: ChEMBL document CHEMBL3745672, “Novel compounds reducing IRS-1 serine phosphorylation for treatment of diabetes” (Bioorg Med Chem Lett, 2016)
